The text below walks through data of ChEMBL document CHEMBL3507680, “University of Dundee, Gates Library screen for HepG2 cell viability”.

The series can be described thus: Human HepG2 cell viability assay in 384 well format. Type of series: toxicity, cell-based. The arrangement: dose 125 nL, time 70.5 hour; concentration not given beside the values. Particulars: HepG2 cells, read-out: Inhibition.
In the case of `Cc1cc(SCC(=O)O)nc2nn(CC(F)F)c(C)c12`, the cytotoxicity at 70.5 h is -1.44%.
The same measure for `CC(C)CNC(=O)COc1cccc[n+]1[O-]`: 0.267%; for `O=C(CCc1nc(Cl)n[nH]1)N1C[C@H](CO)C[C@H](CN2CCCC2)C1`: -7.42%; for `COc1cccc(OCC2CCCN(C(=O)CCc3cc(O)no3)C2)c1` (centres undefined): -21.1%.
The same measure for `CC(C)(C)C(=O)NCCCC(=O)NC(C)(C)c1ccc2c(c1)OCO2`: 3.16%; for `CCC1COCCN1C(=O)NCc1cccc(-c2cnn(C)c2)c1` (centres undefined): -6.22%.
The same measure for `O=C(O)CC(CC(=O)NCCc1cccs1)c1cccs1` (centres undefined): 3.06%; for `CCN(CC)c1nc(C)cc(C(=O)Nc2ccc(Br)cc2)n1`: 3.54%.
As for `Cc1nc(C2CCCN2C(=O)CCCn2cccn2)no1` (centres undefined), the cytotoxicity at 70.5 h stood at 3.27%.
In the case of `COc1c(F)cc(CN2CCC3(CC2)C(C(=O)O)CC(=O)N3C)cc1Cl` (centres undefined) it was -3.91%.
Take `Cc1ccc(C)c(CSc2nnc(C(N)Cc3ccccc3)o2)c1` (centres undefined): the cytotoxicity at 70.5 h was -14.6%.
The same measure for `COCC(=O)N1Cc2nccn2CC(Cn2ncccc2=O)C1` (centres undefined): -10%.
The same measure for `O=C(c1cc2c([nH]c1=O)CCC2)N1CCCC1c1ccccn1` (centres undefined): -2.83%; for `CCN(CC)C[C@H]1CN2CC[C@H]1C[C@@H]2CNC(=O)c1ccco1`: -3.47%; for `CN(CC(F)(F)F)C(=O)CNC(=O)N1CCCC(N(C)C)C1` (centres undefined): -8.19%.
The same measure for `O=C(CCC(F)(F)F)N1CCN(Cc2ccncc2)[C@@H]2CS(=O)(=O)C[C@@H]21`: 24%; for `O=C(O)C1CCCN(C(=O)CCn2ccc3c(Br)cccc32)C1` (centres undefined): -12.2%; for `CN(C)c1ccc(CN2C[C@H]3CC[C@@H]2CN(C2CCOCC2)C3)cn1`: -3.42%.
On to `CCN1C(=O)CC(c2cccnc2)C12CCN(c1ncc(F)cn1)CC2` (centres undefined), for which the cytotoxicity at 70.5 h was determined as 1.09%.
In the case of `Cc1cncc(NCC(O)c2ccco2)n1` (centres undefined) it was -9.53%; in that of `CCOC(=O)CC(C)Nc1nc(C(C)(C)C)nc2c1cnn2C` (centres undefined), 22.1%.
The same measure for `O=C(C1CC=CC1)N1C[C@@H]2[C@@H](C1)OCC(=O)N2Cc1cccnc1`: 0.567%; for `CCC(=O)c1ccc(OCC(=O)NCC2CCCO2)cc1` (centres undefined): 0.0654%.
As for `Cn1cc(-c2nnc3sc(C4CCC4)nn23)cn1`, the cytotoxicity at 70.5 h was -12.3%.
The same measure for `CC(C)c1nsc(N2CCCOCC2)n1`: 37.7%.
In the case of `Cc1[nH]ncc1CCCNC(=O)N1CCOC(C)C1` (centres undefined) it was -5.97%.
In the case of `O=C(Nc1ccccc1)c1cc2n(n1)CCCN(C(=O)N1CCCC1)C2` it was 22.6%; in that of `COCCN1C(=O)C[C@@H]2[C@H]1CCN2C(=O)COc1ccccc1`, -20.9%; in that of `COc1ccc(-c2ccnc(N)c2)c(C)c1`, -15.9%.
Take `Cc1cc(C(=O)N2CCCC(n3cncn3)C2)no1` (centres undefined): the cytotoxicity at 70.5 h is -0.711%.
In the case of `CC(NCc1cccc(Cl)c1)c1ccc(OCC(=O)NC2CC2)cc1` (centres undefined) it was -4.37%; in that of `CCc1nccn1-c1cccc(C2CCN(C(=O)COC)CC2)n1`, 0.0936%.
As to `CCCOCC(=O)N1CCCN(Cc2csc(CC)n2)CC1`, the cytotoxicity at 70.5 h stood at 6.02%.
In the case of `N#Cc1cccnc1N1CCCN(C(=O)CCn2cccn2)CC1` it was -9.39%; in that of `N#Cc1ccccc1N1CCCN(C(=O)CCc2nccs2)CC1`, -21.6%.
In the case of `COc1cccc(S(=O)(=O)CCN2CCCCC2)c1` it was -15.7%; in that of `CC(C)N(CC1CCCN(Cc2ccon2)C1)C(=O)OC(C)(C)C` (centres undefined), -2.83%; in that of `c1cncc(CN2CC[C@H]3O[C@@H](COCC4CC4)CC[C@H]32)c1`, -5.15%.
With `O=C(Nc1ccc(CCN2CCOCC2)cc1)C1CCC1`, the cytotoxicity at 70.5 h was -3.21%.
